pIC50: −log10 of the molar value. Where “and” joins values, the source holds several entries; their conditions need not be identical. Equal values may be shown once.
Test system: MDA-MB-231 multicell spheroids, viability
Assay: Anticancer human tumor MDA-MB-231 cell line growth inhibition [PI3K];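 further: spheroids exposed to agents for seven days before reading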;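 on viability, T/C: percent of vehicle control luminescence with DMSO treated spheroids as 100%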
Settings: for viability, T/C: stronger effect = lower value
From the text: Combinatorial screen of targeted agents with the PI3K inhibitors inavolisib, alpelisib, duvelisib, and copanlisib in multi-cell type tumor spheroids
A high-throughput screen of multi-cell type tumor spheroids was designed to identify active combinations of targeted small molecules and PI3K pathway inhibitors. Complex spheroids include a stromal component modeled by human endothelial cells (HUVEC) and fibroblasts modeled by human mesenchymal stem cells (MSCs). The concentration ranges selected for each drug and investigational agent were based upon clinically achievable concentrations if the clinical Cmax of the agent was known.
Compounds. The drugs and investigational agents: inavolisib (NSC800729), alpelisib (NSC765974), duvelisib (NSC772469), copanlisib (NSC816437), ipatasertib (NSC767898), afuresertib (NSC778305), talazoparib (NSC767125), sapanisertib (NSC764658), selumetinib (NSC741078), tovorafenib (DAY101, NSC766906), vemurafenib (NSC761431), ravoxertinib (NSC781343), sotorasib (NSC818433), MRTX1133 (NSC 836407), abemaciclib (NSC 768073), palbociclib (NSC758247), venetoclax (NSC 766270), SY5609 (NSC837396), enzalutamide (NSC755605), and darolutamide (NSC825331), were obtained from the National Cancer Institute (NCI) Developmental Therapeutics Program Chemical Repository. The FDA-approved anticancer drug set is available from the NCI Developmental Therapeutics Program. […] The stock solutions were prepared in dimethyl sulfoxide (DMSO, Sigma-Aldrich, St. Louis, MO, cat. D2650) at 800-fold the tested concentration and stored at -70 degrees C prior to their use. All drugs and investigational agents were tested over a range starting from a high concentration at or near the clinical Cmax and decreasing in half-log increments. If the clinical Cmax for an agent had not been determined, the highest concentration tested was 10 microM.
Cell Culture. All cells were maintained in an incubator at 37 degrees C and 5% CO2 with 95% humidity. The PDC lines were cultured according to standard operating procedures established by the NCI PDMR (https://pdmr.cancer.gov/sops/default.htm). All PDCs were thawed and cultured in Matrigel-coated flasks prepared with a working solution of 1X Ham's F-12 nutrient mix, without supplementation (Invitrogen, Waltham, MA, cat. 11765054), 100 U/mL penicillin-streptomycin (Invitrogen, cat. 15140122), and 2.5% Matrigel (Corning Inc., Corning, NY, cat. 354248) for the first three passages. The 354836-022-R-J1-PDC, 475296-252-R-J1-PDC, and 997726-040-R-J2-PDC lines were cultured in 6A media, which includes advanced DMEM/F-12 (Thermo Fisher Scientific, cat. 12634028), 10 mM HEPES (Thermo Fisher Scientific, cat. 15630080), 1X GlutaMAX supplement (Thermo Fisher Scientific, cat. 35050061), 0.1 mg/mL primocin (InvivoGen, San Diego, CA, cat. ant-pm-2), 10% defined fetal bovine serum, heat inactivated (HyClone Laboratories Inc., Logan, UT, cat. SH30070.03HI), 50% L-WRN conditioned media (ATCC, cat. CRL-3276), 1.25 mM N-Acetyl-L-cysteine (Sigma-Aldrich, cat. A9165), 10 mM nicotinamide (Sigma-Aldrich, cat. N0636), 1X B-27 supplement (Thermo Fisher Scientific, cat. 17504044), 1X N-2 supplement (Thermo Fisher Scientific, cat. 17502048), and 10 microM Y-27632 dihydrochloride (Tocris Bioscience, Bristol, United Kingdom, cat. 1254). The 624824-186-R-J2-PDC line was cultured in 6C/Colon 1B media, which includes all 6A media components plus 50 ng/mL human EGF recombinant protein (Thermo Fisher Scientific, cat. PHG0311). […]

Compound	viability, T/C (compound 0.0316 µM)	viability, T/C (compound 0.1 µM)	viability, T/C (compound 0.316 µM)	viability, T/C (compound 1 µM)	viability, T/C (compound 3.16 µM)	viability, T/C (compound 10 µM)	IC50 (curve of compound)	viability, T/C (compound 0.00316 µM)	viability, T/C (compound 0.01 µM)	pIC50 (curve of compound)	IC50 (compound alone, run of 05/09/2023)	pIC50 (compound alone, run of 05/08/2023)	viability, T/C (compound 0.00949 µM)	viability, T/C (compound 0.03 µM)	viability, T/C (compound 0.0949 µM)	viability, T/C (compound 0.3 µM)	viability, T/C (compound 0.949 µM)	viability, T/C (compound 3 µM)	viability, T/C (compound 0.000316 µM)
CCCS(=O)(=O)Nc1ccc(F)c(C(=O)c2c[nH]c3ncc(-c4ccc(Cl)cc4)cc23)c1F	113% [middle of 4 runs]	111% [middle of 4 runs]	104% [middle of 4 runs]	89.3% [middle of 4 runs]	68.9% [middle of 4 runs]	34.8% [middle of 4 runs]	5.82 µM [middle of 4 runs]	–	–	–	–	–	–	–	–	–	–	–	–
CCN1CCN(Cc2ccc(Nc3ncc(F)c(-c4cc(F)c5nc(C)n(C(C)C)c5c4)n3)nc2)CC1	87% [middle of 4 runs]	67% and 57.2% and 58.3% (2×)	56.5% and 44.8% and 49.5% (2×)	49.3% [middle of 4 runs]	–	–	–	102% [middle of 4 runs]	97.1% [middle of 4 runs]	–	–	–	–	–	–	–	–	–	–
CNC(=O)c1ccc(N2C(=S)N(c3ccc(C#N)c(C(F)(F)F)c3)C(=O)C2(C)C)cc1F	110% [middle of 4 runs]	111% [middle of 4 runs]	113% [middle of 4 runs]	107% [middle of 4 runs]	98.3% [middle of 4 runs]	88.7% [middle of 4 runs]	–	–	–	< 5.00	–	–	–	–	–	–	–	–	–
COc1c(OCCCN2CCOCC2)ccc2c3n(c(=NC(=O)c4cnc(N)nc4)nc12)CCN3	61.3% [middle of 8 runs]	46.3% [middle of 8 runs]	31.6% [middle of 8 runs]	26% [middle of 8 runs]	–	–	–	99.7% [middle of 8 runs]	79.4% [middle of 8 runs]	–	73.8 nM [middle of 8 runs]	–	–	–	–	–	–	–	–
C[C@@H](NC(=O)c1ncnc(N)c1Cl)c1ncc(C(=O)Nc2cc(C(F)(F)F)c(Cl)cn2)s1	139% [middle of 4 runs]	–	–	–	77.3% [middle of 4 runs]	64.8% [middle of 4 runs]	–	–	–	< 5.00	–	–	–	–	–	–	–	–	–
Cc1nc(NC(=O)N2CCCC2C(N)=O)sc1-c1ccnc(C(C)(C)C(F)(F)F)c1 (stereo not drawn)	98.2% [middle of 8 runs]	88.9% [middle of 8 runs]	75.4% [middle of 8 runs]	71.2% [middle of 8 runs]	64.6% [middle of 8 runs]	63% [middle of 7 runs]	–	–	–	–	–	< 5.00	–	–	–	–	–	–	–
Cn1cnc2c(F)c(Nc3ccc(Br)cc3Cl)c(C(=O)NOCCO)cc21	–	–	–	–	–	–	431 nM [middle of 4 runs]	–	–	–	–	–	72.7% [middle of 4 runs]	64.9% [middle of 4 runs]	59.5% and 57.3% (2×) and 57.6%	53.2% [middle of 4 runs]	47.3% [middle of 4 runs]	34.5% [middle of 4 runs]	–
Cn1nccc1Nc1nccc(-c2ccn(C(CO)c3ccc(Cl)c(F)c3)c(=O)c2)n1 (stereo not drawn)	87% [middle of 4 runs]	70.7% [middle of 4 runs]	61.5% [middle of 4 runs]	50.8% and 49.5% and 49.4% (2×)	41.8% [middle of 4 runs]	30.1% [middle of 4 runs]	905 nM [middle of 4 runs]	–	–	–	–	–	–	–	–	–	–	–	–
Cn1ncnc1[C@H]1c2n[nH]c(=O)c3cc(F)cc(c23)N[C@@H]1c1ccc(F)cc1	94% [middle of 4 runs]	88.7% [middle of 4 runs]	–	–	–	–	–	95.2% [middle of 4 runs]	92.4% [middle of 4 runs]	< 7.00	–	–	–	–	–	–	–	–	114% and 106% and 107% (2×)

— PubChem BioAssay AID1963958 (Molecular Pharmacology Branch, DTP, NCI, 2024)
